US20250136617A1 (The Regents of the University of Colorado, A Body Corporate, priority 2022, published 2025)
“Also recorded” adds a separate entry of the source. Where two headings read alike, the source gives them in different places.

Columns and labels:
[1] = system: CEM-CCRF human lymphoblast cells; test: Transwell migration assay in CEM-CCRF lymphoblasts; format: cell-based
Outline: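 CEM-CCRF cells at 5.0×10^5 cells/mL in RPMI 1640, preincubated 1 h at 37 °C, 5% CO2, then allowed to migrate in a 96-well transwell system for 3 h at 37 °C. Migrated cells in the receiver tray quantified by ATPLite luminescence.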

[2] = biological target: CXCR4 (Homo sapiens, UniProt P61073); test: Tag-Lite CXCR4 binding assay (displacement of fluorescent SDF-1α)
Experimental: Binding activity was measured using the Cisbio Tag-Lite Chemokine CXCR4 system (CisBio, Bedford, MA). […] Following three-hour incubation, HTRF measurements were taken using the BMG LABTECH CLARIOstar Plus (BMG LABTECH Inc., Cary, NC) with emission signals set to the Cisbio Tag-Lite Binding Assay supplier guidelines. HTRF ratio calculations completed according to supplier guidelines.

[3] = system: miR-29a; test: qPCR of miR-29a expression in human dermal fibroblasts; format: cell-based; conditions: 24 hours, 0.1, 1 and 10 uM
Experimental: An additional secondary screen was performed to further validate activity of UCUF-728 as a selective CXCR4 receptor modulator. Human diabetic and non-diabetic fibroblasts were cultured with increasing concentrations of the compound. The cells were incubated for 24 hours and then total cellular RNA was isolated to examine the ability of the compound to correct the abnormal expression of miR15b, and miR29a. It has been shown that human diabetic skin has increased miR-15b expression at baseline compared to non-diabetic skin (Xu et al. “The role of microRNA-15b in the impaired angiogenesis in diabetic wounds.” Wound Repair Regen 2014; 22(5):671-7).
Diabetic and non-diabetic fibroblasts were cultured with increasing concentrations of a UCUF-965 compound. The cells were incubated for 24 hours and then total cellular RNA was isolated to examine the ability of the compound to correct the abnormal expression of miR15b, and miR29a. Angiogenesis is regulated by hypoxia and the production of growth factors such as Hypoxia-inducible Factor 1-alpha (HIF-1a) and Vascular Endothelial Growth Factor (VEGF). […] MicroRNA-15b (miR-15b) has been described as a key negative modulator of angiogenesis. Under hypoxia, miR-15b is repressed, resulting in an increased level of VEGF. Over-expression of miR-15b also markedly attenuates hypoxia induced vessel tube formation and cell migration. […]

[4] = system: miR-29a; test: miR-29a expression in murine fibroblasts; format: cell-based; conditions: 24 h; listed as UCUF-965
Experimental: Total RNA was extracted with TRIzol reagent (Invitrogen, Carlsbad, CA, USA) according to the manufacturer's established protocol. RNA was converted into cDNA using the SuperScript First-Strand Synthesis System (Invitrogen, Life Technologies). Primers and probes for mouse miR-15b and miR-29a were acquired from Applied Biosystems TaqMan gene expression assay (Applied Biosystems, Foster City, CA). Quantitative PCR was performed on a BIO-RAD CFX96 according to the manufacturer's instructions. Quantitative values of genes of interest are normalized based on U6. Samples (n=5 per group) were amplified in triplicate and results were averaged for each individual sample. The ΔΔCT method was used to calculate relative gene expression. Results are reported as mean±SD.
The expression of specific micro-RNA levels reported to be crucial in the wound-healing process were measured in order to validate and correlate the in vitro activity of UCUF-965 as a selective CXCR4 receptor modulator to micro-RNA expression. Murine diabetic and non-diabetic fibroblasts were cultured with increasing concentrations of the compound. The cells were incubated for 24 h and then total cellular RNA was isolated to examine the ability of the compound to correct the abnormal expression levels of miR-15b, miR-29a, and miR-146a. […]

Chain of CXCR4 (P61073 whole entry): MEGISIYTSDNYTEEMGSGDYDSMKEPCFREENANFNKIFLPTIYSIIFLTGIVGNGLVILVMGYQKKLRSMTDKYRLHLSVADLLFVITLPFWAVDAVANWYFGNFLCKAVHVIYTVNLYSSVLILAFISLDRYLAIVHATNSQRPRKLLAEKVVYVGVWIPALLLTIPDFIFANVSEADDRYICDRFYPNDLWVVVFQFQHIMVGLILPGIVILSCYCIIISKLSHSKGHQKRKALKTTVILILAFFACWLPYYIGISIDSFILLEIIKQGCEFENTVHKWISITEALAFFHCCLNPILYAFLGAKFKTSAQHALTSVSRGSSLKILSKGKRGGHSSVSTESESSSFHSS

Row | SMILES | migration activity (words) ([1]; listed as UCUF-728) | displacement of SDF-1α binding ([2]; listed as UCUF-728) | miR-29a expression ([3]; listed as UCUF-728) | miR-29a expression [4] | fold lower potency in migration vs β-arrestin recruitment assay [1] [fold] | migration activity (words) [1] | EC50 ([1]; Homo sapiens, read-out: Migration log EC50, log value, n=3 (converted)) [nM] | Migration CEM Emax (%) ([1]; listed as UCUF-965) | EC50 ([1]; read-out: Migration CEM EC50, listed as UCUF-965) [nM] | displacement of SDF-1α binding ([2]; listed as UCUF-965) | miR-29a expression ([3]; listed as UCUF-965)
1 | COc1ccc(OC)c(NS(=O)(=O)c2ccc(-c3cnc(C4CC4)o3)cc2)c1 [Oxazole Entry 19, 4-(2-Cyclopropyloxazol-5-yl)-N-(2,5-dimethoxyphenyl)benzenesulfonamide] | induced migration with similar EC50 and Emax as the B-arrestin recruitment activity; also recorded: SDF-1α-mediated response was potentiated; also recorded: dose-dependent partial activation of CEM-CCRF cell migration | did not displace SDF-1α binding; also recorded: did not displace SDF-1a saturation binding | significant decrease in miR-29a expression level; also recorded: reduced miR-29a expression | – | – | – | – | – | – | – | –
2 | CCOc1ccccc1-c1nnc2n1N=C(c1ccc(N3CCCC3)cc1)CS2 [Thiadiazine Entry 23, 3-(2-ethoxyphenyl)-6-(4-(pyrrolidin-1-yl)phenyl)-7H-[1,2,4]triazolo[3,4-b][1,3,4]thiadiazine] | – | – | – | significant decrease of miR-29a levels; also recorded: suppression of miR15b and miR29a | 10 | partial activator of CXCR4-mediated cell migration | 398 | 31 | 400 | did not displace fluorescently labelled SDF-1α binding; also recorded: did not displace SDF-1α saturation binding; also recorded: did not competitively displace | significant decrease in miR-29a; also recorded: decreased
